Measured values taken from US12459919B2, “Polymorphic forms of (R)-4-(1-((3-(difluoromethyl)-1-methyl-1H-pyrazol-4-yl)sulfonyl)-1- fluoroethyl)-N-(isoxazol-3-yl)piperidine-1-carboxamide” (MyoKardia, Inc., priority 2019, dated 2025).

How the values were obtained:
[1] = DVS isotherm (hygroscopicity); format: physicochemical
[2] = test system: adult rat ventricular myocytes; assay: Cardiomyocyte contractility assay (fractional shortening, IonOptix); format: cell-based; conditions: 5 minutes perfusion, 1 Hz pacing
Protocol: Contractility of adult rat ventricular myocytes is determined by edge detection with an IonOptix contractility system. Aliquots of myocytes in Tyrode buffer (137 mM NaCl, 3.7 mM KCl, 0.5 mM MgCl2, 1.5 mM CaCl2, 4 mM HEPES, 11 mM glucose) are placed in a perfusion chamber (Series 20 RC-27NE; Warner Instruments), allowed to adhere to the coverslip, and then perfused with 37° C. Tyrode buffer. Myocytes are filed stimulated at 1 Hz and 10V. Only myocytes with clear striations, quiescent prior to pacing, with a cell length of 120-180 microns, a basal fractional shortening equal to 3-8% of the cell length, and a contraction velocity greater than 100 microns per second are used for contractility experiments. To determine the response to compounds, myocytes are first perfused for 60 seconds with Tyrodes buffer followed by 5 minutes of compound and a 140 second washout with Tyrodes buffer. Data is continuously recorded using IonOptix software. Contractility data is analyzed using Ionwizard software (IonOptix). For each cell, 10-20 contractility transients were averaged and compared under basal (no compound) and compound-treated conditions. Compound activity is measured by effects on fractional shortening (FS), where fractional shortening is the ratio of the peak length of the cell at contraction divided by the basal cell length normalized to 100% for an untreated cell.

bovine cardiac myosin = bovine cardiac myosin (Bos taurus, UniProt Q9BE39); assay: Myosin activation assay (PK/LDH-coupled ATPase, skinned myofibrils); format: biochemical; conditions: concentration at which total response is increased by twenty percent
bovine cardiac myosin, sequence (Q9BE39 whole entry): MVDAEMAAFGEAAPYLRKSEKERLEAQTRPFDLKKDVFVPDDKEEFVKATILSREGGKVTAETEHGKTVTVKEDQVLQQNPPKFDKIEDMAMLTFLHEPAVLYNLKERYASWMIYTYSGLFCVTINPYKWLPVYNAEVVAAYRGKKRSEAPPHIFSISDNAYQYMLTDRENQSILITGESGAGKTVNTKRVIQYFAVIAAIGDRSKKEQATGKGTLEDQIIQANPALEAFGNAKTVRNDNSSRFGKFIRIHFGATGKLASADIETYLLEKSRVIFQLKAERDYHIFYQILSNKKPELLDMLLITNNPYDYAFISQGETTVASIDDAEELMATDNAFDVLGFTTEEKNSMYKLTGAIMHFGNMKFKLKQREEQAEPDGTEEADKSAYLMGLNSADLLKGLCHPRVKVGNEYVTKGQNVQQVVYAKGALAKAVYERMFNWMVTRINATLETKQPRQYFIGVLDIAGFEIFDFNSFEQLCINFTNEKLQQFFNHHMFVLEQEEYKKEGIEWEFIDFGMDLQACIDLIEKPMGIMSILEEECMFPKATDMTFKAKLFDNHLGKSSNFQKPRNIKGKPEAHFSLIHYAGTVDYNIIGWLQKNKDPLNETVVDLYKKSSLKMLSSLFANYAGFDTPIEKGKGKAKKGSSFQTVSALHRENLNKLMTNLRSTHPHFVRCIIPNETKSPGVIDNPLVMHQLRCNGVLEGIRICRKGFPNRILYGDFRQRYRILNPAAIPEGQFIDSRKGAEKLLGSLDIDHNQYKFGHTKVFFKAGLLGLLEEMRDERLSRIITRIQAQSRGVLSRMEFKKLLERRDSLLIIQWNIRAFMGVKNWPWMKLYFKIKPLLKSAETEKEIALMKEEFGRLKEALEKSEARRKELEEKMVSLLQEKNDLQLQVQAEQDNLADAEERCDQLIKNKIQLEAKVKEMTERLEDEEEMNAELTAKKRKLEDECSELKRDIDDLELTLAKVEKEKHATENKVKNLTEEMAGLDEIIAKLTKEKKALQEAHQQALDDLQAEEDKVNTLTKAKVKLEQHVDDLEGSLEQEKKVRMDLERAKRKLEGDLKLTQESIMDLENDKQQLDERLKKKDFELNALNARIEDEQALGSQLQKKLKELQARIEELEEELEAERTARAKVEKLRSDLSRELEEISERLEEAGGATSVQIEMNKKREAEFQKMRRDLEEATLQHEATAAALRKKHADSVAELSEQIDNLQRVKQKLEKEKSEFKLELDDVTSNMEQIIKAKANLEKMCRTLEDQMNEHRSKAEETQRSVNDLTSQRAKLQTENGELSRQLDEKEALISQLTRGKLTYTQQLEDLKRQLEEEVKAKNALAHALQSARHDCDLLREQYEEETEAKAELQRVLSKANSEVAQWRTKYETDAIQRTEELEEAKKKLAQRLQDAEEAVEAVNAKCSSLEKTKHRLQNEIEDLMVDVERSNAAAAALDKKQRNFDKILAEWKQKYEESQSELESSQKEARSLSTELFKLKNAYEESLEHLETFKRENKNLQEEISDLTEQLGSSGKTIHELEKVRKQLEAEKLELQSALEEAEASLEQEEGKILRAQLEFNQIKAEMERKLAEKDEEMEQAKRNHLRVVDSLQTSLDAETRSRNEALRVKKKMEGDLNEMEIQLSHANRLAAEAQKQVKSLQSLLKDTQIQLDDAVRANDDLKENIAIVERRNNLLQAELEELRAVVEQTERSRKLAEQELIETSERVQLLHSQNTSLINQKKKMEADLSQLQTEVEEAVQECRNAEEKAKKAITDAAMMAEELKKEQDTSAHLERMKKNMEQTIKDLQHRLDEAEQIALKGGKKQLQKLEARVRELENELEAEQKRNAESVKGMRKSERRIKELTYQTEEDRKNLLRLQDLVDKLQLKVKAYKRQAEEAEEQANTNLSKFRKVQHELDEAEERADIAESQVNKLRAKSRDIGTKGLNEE
bovine cardiac myosin, sequence (P85100 whole entry partner): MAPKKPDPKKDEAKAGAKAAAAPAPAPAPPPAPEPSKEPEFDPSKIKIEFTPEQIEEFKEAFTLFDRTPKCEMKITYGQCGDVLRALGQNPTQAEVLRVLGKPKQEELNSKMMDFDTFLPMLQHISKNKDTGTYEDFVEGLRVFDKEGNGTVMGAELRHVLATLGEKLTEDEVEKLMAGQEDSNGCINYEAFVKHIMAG
bovine cardiac myosin, sequence (Q3SZE5 whole entry partner): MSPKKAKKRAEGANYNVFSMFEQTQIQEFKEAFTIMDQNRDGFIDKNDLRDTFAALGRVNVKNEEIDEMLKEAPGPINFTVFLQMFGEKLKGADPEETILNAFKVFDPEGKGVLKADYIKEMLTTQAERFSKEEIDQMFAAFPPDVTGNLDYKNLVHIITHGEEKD
Protocol: Small molecule agents were assessed for their ability to activate the enzymatic activity of bovine cardiac myosin using a biochemical assay that couples the release of ADP (adenosine diphosphate) from cardiac myosin to an enzymatic coupling system consisting of pyruvate kinase and lactate dehydrogenase (PK/LDH) and monitoring the absorbance decrease of NADH (at 340 nm) as a function of time. PK converts ADP to ATP (adenosine triphosphate) by converting PEP (phosphoenolpyruvate) to pyruvate. Pyruvate is then converted to lactate by LDH by converting NADH (nicotinamide adenine dinucleotide) to NAD (oxidized nicotinamide adenine dinucleotide). […] Prior to testing small molecule agents, the bovine myofibrils were assessed for their calcium responsiveness and the calcium concentration that achieves either a 50% (pCa50 or pCa=˜6) or <5% (pCa=10) activation of the myofibril system was chosen as the final condition for assessing the activation activity of the small molecule agents. […]
A dilution series of compound was created in DMSO such that the final desired concentration of compound would be achieved in a volume of […] with a fixed DMSO concentration of 3.3% (v/v). […] The reaction progress was followed in a PerkinElmer Envision plate reader at ambient temperature using clear bottom plates. The plate reader was configured to read absorbance at 340 nm in kinetics mode for 15 minutes. […]

[3] = Polymorph relative stability, interconversion slurring experiments; format: physicochemical

SMILES	Hygroscopic character (DVS isotherm) [1]	Activity at 3.0 uM (fractional shortening activation over basal) ([2]; 3.0 uM compound)	Activity at 10 uM (fractional shortening activation over basal) ([2]; 10 uM compound)	Myosin Activation (AC20) (bovine cardiac myosin)	Relative stability of polymorphs ([3]; 1:1 (w/w) forms A+εD and B slurried 18 hours in acetonitrile and water mixture, range of RT to 70° C.)	Polymorph stability ranking ([3]; compared to Form A, Form C, and Form D)
Cn1cc(S(=O)(=O)[C@@](C)(F)C2CCN(C(=O)Nc3ccon3)CC2)c(C(F)F)n1 [Form A, (R)-4-(1-((3-(difluoromethyl)-1-methyl-1H-pyrazol-4-yl)sulfonyl)-1-fluoroethyl)-N-(isoxazol-3-yl)piperidine-1-carboxamide]	non-hygroscopic	+ (fractional shorting activation <20% over basal)	++ (fractional shorting activation values from 20% to 50% over basal)	+++ (myosin activation value AC20 < 2 μM)	–	–
Cn1cc(S(=O)(=O)[C@@](C)(F)C2CCN(C(=O)Nc3ccon3)CC2)c(C(F)F)n1 [Form B, (R)-4-(1-((3-(difluoromethyl)-1-methyl-1H-pyrazol-4-yl)sulfonyl)-1-fluoroethyl)-N-(isoxazol-3-yl)piperidine-1-carboxamide]	nonhygroscopic	–	–	–	more stable compared to Form A	most stable polymorph
